Target: T1, human apelin receptor (APJ, APLNR) (Homo sapiens, UniProt P35414)
T1 construct: host or cells: Chinese hamster ovary (CHO) cells, stably integrated receptor
T1 sequence (P35414 1-380): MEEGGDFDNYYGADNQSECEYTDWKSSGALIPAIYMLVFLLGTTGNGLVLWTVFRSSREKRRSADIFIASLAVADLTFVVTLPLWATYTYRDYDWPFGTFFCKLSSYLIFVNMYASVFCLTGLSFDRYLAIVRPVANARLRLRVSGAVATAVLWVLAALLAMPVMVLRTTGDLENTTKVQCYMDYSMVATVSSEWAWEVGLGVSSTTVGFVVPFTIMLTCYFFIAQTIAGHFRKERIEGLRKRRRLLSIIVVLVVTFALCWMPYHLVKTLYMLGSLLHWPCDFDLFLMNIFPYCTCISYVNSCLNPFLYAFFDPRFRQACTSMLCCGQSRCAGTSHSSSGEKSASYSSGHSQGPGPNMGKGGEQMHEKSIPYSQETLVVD
Assay: cell-based cAMP assay (TR-FRET) in Chinese hamster ovary cells expressing the apelin receptor
Conditions: EC50 = 50% of control (apelin-13, 1 nM) response; cAMP in CHO cells, 0.5 h incubation; read-out: Potency Category
Description: This example illustrates the biological activity of various compounds tested against the APJ receptor.
Commercially available cell lines were used to screen chemical libraries to identify compounds that potently and selectively activated the human apelin receptor. The assays disclosed herein were performed using cell lines from DiscoveX, Inc.
Biological activity was determined to the cell-based assay. This assay detects activation of the receptor by reporting on intracellular cyclic adenosine monophosphate (cAMP) level. Chinese hamster ovary cells engineered to express the stably integrated human appellant receptor (APJ, AGTRL-one, APLNR), pleaded into the wells of the microtiter plate. Cells were stimulated with […] to increase intracellular cyclic AMP. Immediately following, compounds were added to the range of final concentrations 0.0-100 μM, in DMSO (not to exceed a final DMSO concentration greater than 1% v/v), and allowed to incubate with the cells for 0.5 h. At the end of the incubation, cells were lysed to stop APJ signaling and cAMP was quantified using a commercially available competitive immunoassay kit that applies homogenous time-resolved florescence energy transfer (TR-FRET). The assay is based on the competition between a europium (Eu) chelate-labeled cAMP donor tracer and cellular cAMP for binding sites on a cAMP-specific monoclonal antibody labeled with an acceptor fluorophore. When antibodies are bound to the cAMP tracer light emissions at 320 nm stimulate the energy transfer from the donor to the acceptor, which in turn emits light at 665 nm. In the presence of competitive unlabeled cAMP (derived from the activity of the receptor or forskolin-stimulated production of cAMP), the labelled cAMP tracer is dissociated from the cAMP antibody, resulting in a loss of FRET signal. The amount of light emitted by the FRET is inversely proportional to the cAMP generated by the cell/receptor system. Potency and efficacy at APJ are reported in reference to the canonical APJ receptor agonist apelin-13 when tested at 1 nM.
Compound competency is reported as the effective concentration required to effect 50% (EC 50) of the control (apelin—13, 1 nM) response in micromole are (μM) units. Compound efficacy (% response) is reported as a percentage of the maximal apein-13 response at 1 nM (control). Potencies were calculated by fitting a four-point logistic curve to concentration response consisting of at least 10 discrete data points spanning effective range of the compounds in the cell-based assay that measures cAMP. In Table 1, the Potency Categories are A, B, C and D. Category A EC50>500 nM; Category B 200<EC50<500 nM; Category C 100<EC50<200 nM; Category D<100 nM.

Structure (SMILES) | EC50
COC(=O)c1cc(Nc2ccc(OC(F)(F)F)cc2)n2nc(C)c(-c3c(C)cccc3C)c2n1 [Compound 137, methyl 3-(2,6-dimethylphenyl)-2-methyl-7-{[4-(trifluoromethoxy)phenyl]amino}-8-hydropyrazolo[1,5-a]pyrimidine-5-carboxylate] | > 500 nM
Cc1nn2c(C(C)C)cc(C(=O)O)nc2c1-c1c(F)cccc1F [Compound 104, 3-(2,6-difluorophenyl)-2-methyl-7-(methylethyl)-8-hydropyrazolo[1,5-a]pyrimidine-5-carboxylic acid] | > 500 nM
CCOC(=O)c1cc(C(C)C)n2nc(C3CC3)c(-c3ccccc3)c2n1 [Compound 11, ethyl 2-cyclopropyl-7-(methylethyl)-3-phenyl-8-hydropyrazolo[1,5-a]pyrimidine-5-carboxylate] | > 500 nM
COC(=O)c1cc(N(C)c2ccccc2)n2nc(C)c(-c3c(C)cccc3C)c2n1 [Compound 146, methyl 3-(2,6-dimethylphenyl)-2-methyl-7-(methylphenylamino)-8-hydropyrazolo[1,5-a]pyrimidine-5-carboxylate] | > 500 nM
Cc1cccc(C)c1-c1c(C)nn2c(N(C)C)cc(C(=O)O)nc12 [Compound 103, 7-(dimethylamino)-3-(2,6-dimethylphenyl)-2-methyl-8-hydropyrazolo[1,5-a]pyrimidine-5-carboxylic acid] | > 500 nM
CCOC(=O)c1cc(C(C)C)n2nc(C)c(-c3c(C)cccc3Cl)c2n1 [Compound 94, ethyl 3-(6-chloro-2-methylphenyl)-2-methyl-7-(methylethyl)-8-hydropyrazolo[1,5-a]pyrimidine-5-carboxylate] | > 500 nM
Cc1nn2c(C(C)C)cc(C(N)=O)nc2c1-c1ccccc1 [Compound 14, 2-methyl-7-(methylethyl)-3-phenyl-8-hydropyrazolo[1,5-a]pyrimidine-5-carboxamide] | > 500 nM
COC(=O)c1cc(Nc2ccc(Cl)cc2)n2nc(C)c(-c3c(C)cccc3C)c2n1 [Compound 133, methyl 3-(2,6-dimethylphenyl)-7-[(4-chlorophenyl)amino]-2-methyl-8-hydropyrazolo[1,5-a]pyrimidine-5-carboxylate] | > 500 nM
Cc1nn2c(C(C)C)cc(C(=O)O)nc2c1-c1ccccc1Cl [Compound 21, 3-(2-chlorophenyl)-2-methyl-7-(methylethyl)-8-hydropyrazolo[1,5-a]pyrimidine-5-carboxylic acid] | > 500 nM
COC(=O)c1cc(N2CCCC2)n2nc(C)c(-c3c(C)cccc3C)c2n1 [Compound 122, methyl 3-(2,6-dimethylphenyl)-2-methyl-7-pyrrolidinyl-8-hydropyrazolo[1,5-a]pyrimidine-5-carboxylate] | > 500 nM
Cc1cccc(C)c1-c1c(C)nn2c(N3CCNCC3)cc(C(=O)O)nc12 [Compound 152, 3-(2,6-dimethylphenyl)-2-methyl-7-piperazinyl-8-hydropyrazolo[1,5-a]pyrimidine-5-carboxylic acid] | > 500 nM
CCOC(=O)c1cc(C(C)C)n2nc(C)c(-c3ccccc3F)c2n1 [Compound 23, ethyl 3-(2-fluorophenyl)-2-methyl-7-(methylethyl)-8-hydropyrazolo[1,5-a]pyrimidine-5-carboxylate] | > 500 nM
CCOC(=O)c1cc(C(C)C)n2nc(CO)c(-c3c(C)cccc3C)c2n1 [Compound 86, ethyl 3-(2,6-dimethylphenyl)-2-(hydroxymethyl)-7-(methylethyl)-8-hydropyrazolo[1,5-a]pyrimidine-5-carboxylate] | > 500 nM
Cc1cccc(C(=O)O)c1-c1c(C)nn2c(C(C)C)cc(C(=O)O)nc12 [Compound 85, 3-(2-carboxy-6-methylphenyl)-2-methyl-7-(methylethyl)-8-hydropyrazolo[1,5-a]pyrimidine-5-carboxylic acid] | > 500 nM
CCOC(=O)c1cc(N2CCOCC2)n2nc(C)c(-c3c(C)cccc3C)c2n1 [Compound 97, ethyl 3-(2,6-dimethylphenyl)-2-methyl-7-morpholin-4-yl-8-hydropyrazolo[1,5-a]pyrimidine-5-carboxylate] | > 500 nM
Cc1cc(F)cc(C)c1-c1c(C)nn2c(C(C)C)cc(C(=O)O)nc12 [Compound 50, 3-(4-fluoro-2,6-dimethylphenyl)-2-methyl-7-(methylethyl)-8-hydropyrazolo[1,5-a]pyrimidine-5-carboxylic acid] | 100 to 200 nM
CCOC(=O)c1cc(C(C)C)n2nc(C)c(-c3c(Cl)cccc3Cl)c2n1 [Compound 114, ethyl 3-(2,6-dichlorophenyl)-2-methyl-7-(methylethyl)-8-hydropyrazolo[1,5-a]pyrimidine-5-carboxylate] | > 500 nM
CCOC(=O)c1cc(-c2ccccc2)n2nc(C)c(-c3c(C)cccc3C)c2n1 [Compound 82, ethyl 3-(2,6-dimethylphenyl)-2-methyl-7-phenyl-8-hydropyrazolo[1,5-a]pyrimidine-5-carboxylate] | > 500 nM
Cc1nn2c(C(C)C)c(C)c(C(=O)O)nc2c1-c1ccccc1 [Compound 38, 2,6-dimethyl-7-(methylethyl)-3-phenyl-8-hydropyrazolo[1,5-a]pyrimidine-5-carboxylic acid] | > 500 nM
CCOC(=O)c1cc(C(C)C)n2nc(C)c(-c3ccccc3Cl)c2n1 [Compound 19, ethyl 3-(2-chlorophenyl)-2-methyl-7-(methylethyl)-8-hydropyrazolo[1,5-a]pyrimidine-5-carboxylate] | > 500 nM
CCOC(=O)c1cc(CC)n2nc(C)c(-c3ccccc3)c2n1 [Compound 33, ethyl 7-ethyl-2-methyl-3-phenyl-8-hydropyrazolo[1,5-a]pyrimidine-5-carboxylate] | > 500 nM
COc1cc(C)c(-c2c(C)nn3c(C(C)C)cc(C(=O)O)nc23)c(C)c1 [Compound 48, 3-(4-methoxy-2,6-dimethylphenyl)-2-methyl-7-(methylethyl)-8-hydropyrazolo[1,5-a]pyrimidine-5-carboxylic acid] | > 500 nM
CCOC(=O)c1cc(C(C)C)n2nc(C)c(-c3c(C)cc(OC)cc3C)c2n1 [Compound 46, ethyl 3-(4-methoxy-2,6-dimethylphenyl)-2-methyl-7-(methylethyl)-8-hydropyrazolo[1,5-a]pyrimidine-5-carboxylate] | > 500 nM
Cc1cccc(C)c1-c1c(C)nn2c(Nc3ccccc3)cc(C(=O)O)nc12 [Compound 118, 3-(2,6-dimethylphenyl)-2-methyl-7-(phenylamino)-8-hydropyrazolo[1,5-a]pyrimidine-5-carboxylic acid] | > 500 nM
COC(=O)c1nc2c(-c3ccccc3)c(C)nn2c(C(C)C)c1C [Compound 37, methyl 2,6-dimethyl-7-(methylethyl)-3-phenyl-8-hydropyrazolo[1,5-a]pyrimidine-5-carboxylate] | > 500 nM
CCOC(=O)c1cc(C)n2nc(C)c(-c3c(C)cccc3C)c2n1 [Compound 56, ethyl 3-(2,6-dimethylphenyl)-2,7-dimethyl-8-hydropyrazolo[1,5-a]pyrimidine-5-carboxylate] | > 500 nM
CCOC(=O)c1cc(C(C)C)n2nc(C)c(-c3c(C)cc(F)cc3C)c2n1 [Compound 47, ethyl 3-(4-fluoro-2,6-dimethylphenyl)-2-methyl-7-(methylethyl)-8-hydropyrazolo[1,5-a]pyrimidine-5-carboxylate] | > 500 nM
COC(=O)c1cc(Nc2ccc(C)cc2)n2nc(C)c(-c3c(C)cccc3C)c2n1 [Compound 134, methyl 3-(2,6-dimethylphenyl)-2-methyl-7-[(4-methylphenyl)amino]-8-hydropyrazolo[1,5-a]pyrimidine-5-carboxylate] | > 500 nM
Cc1cccc(C)c1-c1c(CO)nn2c(C(C)C)cc(C(=O)O)nc12 [Compound 87, 3-(2,6-dimethylphenyl)-2-(hydroxymethyl)-7-(methylethyl)-8-hydropyrazolo[1,5-a]pyrimidine-5-carboxylic acid] | > 500 nM

Source: patent US12006321B2, “Substituted pyrazolo[1,5-a]pyrimidines as apelin receptor agonists” (Sanford Burnham Prebys Medical Discovery Institute, priority 2017, dated 2024)
